{"source": "paper PMC7062083", "about": "“Metabolite identification, tissue distribution, excretion and preclinical pharmacokinetic studies of ET-26-HCl, a new analogue of etomidate” (Royal Society Open Science, 2020)", "key": {"[1]": {"experiment": "Metabolic stability in rat liver microsomes", "type": "in vitro ADME", "procedure": "(§1) Samples were analysed by LC–MS/MS as mentioned above.2.1 CLint, in vitro=0.693/t1/2/Cprotein, 2.2 CLint, in vivo=CLint, in vitro×Houston×LW/1000 2.3 andCLhep in vivo=HBF × fu ×CLint, in vivo/HBF + fu ×CLint, in vivo. Where Cprotein is microsomal protein concentration (mg ml^−1); Houston is Houston factor (45 mg of microsomal protein g^−1 liver); LW is liver weight (g) (per species); HBF is hepatic blood flow (ml min^−1) (per species); fu (two places) and later is unbound fraction (fu = 1 − %protein binding)."}, "[2]": {"experiment": "Metabolic stability in dog liver microsomes", "type": "in vitro ADME", "settings": "for half-life: pH 7.4", "procedure": "as §1"}, "[3]": {"experiment": "Plasma protein binding, equilibrium dialysis, beagle dog plasma", "type": "in vitro ADME", "procedure": "The PPB of ET-26-HCl in mouse, rat, beagle dog, monkey and human plasma was determined according to the equilibrium dialysis method. In brief, 1 ml of control plasma samples in dialysis bag was incubated in 10 ml of PBS containing ET-26-HCl at a final concentration of 2.21 × 10^2, 1.77 × 10^3 and 3.54 × 10^3 […] at 4°C with an equilibrium time of 9 h to reach the mass balance binding condition. A 100 µl aliquots of the PBS buffer and the plasma in the dialysis bag were transferred to 2 ml EP tubes and diluted to 995 µl with PBS and analysed on the LC–MS/MS system. The PPB (fppb) was calculated as follows: fppb=Din−Dout/Din×100% , where Din is the plasma drug concentration in the dialysis bag and Dout is the dialysate drug concentration."}, "[4]": {"experiment": "Pharmacokinetics in beagle dogs after intravenous administration", "type": "in vivo", "settings": "beagle dogs; for λ: i.v.; for Vd / half-life / AUC0-t / Cmax / clearance: both sexes, dog, plasma, iv; for Vd / half-life: beagle", "procedure": "(§2) Concentrations of ET-26-HCl and ET-26-acid in biological samples were determined by liquid chromatography–tandem mass spectrometry (LC–MS/MS) after deproteinization with methanol. The bioanalytical method for simultaneous quantification of ET-26-HCl and ET-26-acid in the different matrix was fully validated according to FDA guidelines (electronic supplementary material, figure S1 and tables S1 and S2) in our previous study. Briefly, a 100 µl sample (plasma, tissue homogenate, bile, urine and faeces suspension) were spiked with 20 µl of IS solution and vortexed for 30 s. The mixture was then processed for protein precipitation with 300 µl methanol, followed by centrifugation at 12 000 r.p.m. for 5 min. Supernatant was collected and analysed by LC–MS/MS system.\nThe LC–MS/MS was performed as described previously. Briefly, ET-26-HCl, ET-26-acid and GBP were separated using a CAPCELL PAK C18 column (50 × 2.00 mm, 5.00 µm) as well as a Security Guard Cartridge (C18, 4 mm × 3.00 mm i.d., Phenomenex). The mobile phase consisting of 0.3% formic acid water (A), and methanol (B) was pumped at a flow rate of 0.6 ml min^−1. The gradient elution was achieved according to the following protocol: 0 min to about 0.50 min, A/B (41/9, v/v); 0.51 min to about 1.5 min, A/B (1/9, v/v); and 1.51 min to about 2.00 min, A/B ([…], v/v). Mass spectrometry was conducted on an API 3000 mass spectrometer (Sciex, Framingham, MA, USA) equipped with an electrospray ionization (ESI) source operating in positive mode. The MS/MS system was in the multiple reaction monitoring (MRM) mode, using the m/z transitions of 275.6/170.9 for ET-26-HCl, 217.7/113.1 for ET-26-acid and 172.5/154.3 for GBP (IS), respectively. The API 3000 mass parameters were set according to the following protocol: curtain gas, 6 psi; collision gas, 8 psi; nebulizer, 4 psi; ion spray voltage, 3000 V and ion source temperature, 450°C. The autosampler was conditioned at 4°C, and the injection volume was 5 µl. The linear ranges of this analytical method for ET-26-HCl and for ET-26-acid from all biological samples are shown in electronic supplementary material, table S3.\nBeagle dogs, weighing 9–11 kg, were purchased from Sichuan Industrial of Antibiotics, China National Pharmaceutical Group Corporation (Chengdu, China). A 3 × 3 crossover experimental design with 24 beagles (equal number of male and female dogs) randomly divided into six groups was conducted. Beagle dogs in the six groups received three doses of ET-26-HCl: 1.045 mg kg^−1, 2.090 mg kg^−1 and 4.180 mg kg^−1 as low (L), medium (M) and high (H) dose. Blood samples (2 ml) were collected from the elbow vein in 4 ml heparinized tubes before dosing, and at 1, 3, 5, 10, 20, 30, 120 and 180 min post-dosing. All blood samples were centrifuged at 8000 r.p.m. for 10 min and plasma collected and stored at −80°C until analysis.\nAll calculations were performed on Microsoft Excel 2016 (Microsoft Co., USA). The Drug and Statistics 3.2.7 (DAS 3.2.7) software package (Mathematical Pharmacology Professional Committee of China, China) was used to acquire the main pharmacokinetic parameters of ET-26-HCl. All data were shown as mean ± standard deviation (s.d.). Statistical significances were calculated by one-way analysis of variance (ANOVA)."}, "[5]": {"experiment": "Stability in beagle plasma (LC-MS/MS)", "type": "in vitro ADME", "procedure": "as §2"}, "[6]": {"settings": "dog liver microsomes, Cprotein 0.33 mg ml^−1"}}, "note": "Where “and” joins values, the source holds several entries; their conditions need not be identical. Equal values may be shown once. Read-outs that look alike come from different tables or passages of the source."}
{"smiles": "COCCOC(=O)c1cncn1[C@H](C)c1ccccc1.Cl", "note": "[ET-26-HCl, (R)-2-methoxyethyl1-(1-phenylethyl)-1H-imidazole-5-carboxylate hydrochloride]", "values": [{"measurement": "CLint, in vitro", "setting": "[1]; rat liver microsomes", "result": 984, "unit": "ml min g^−1 protein"}, {"measurement": "metabolic stability (in words)", "setting": "[1]; rat liver microsomes", "result": "not metabolically stable"}, {"measurement": "CLint, in vitro", "setting": "[1]; rat liver microsomes, Cprotein 0.33 mg ml^−1", "result": "984 ± 68.6", "unit": "ml min^−1 g^−1 protein"}, {"measurement": "extrapolated hepatic clearance normalized to body weight", "setting": "[1]; rat, assumed body weight 0.25 kg (printed order)", "result": 1.78, "unit": "L·h/kg"}, {"measurement": "extrapolated CLhep in vivo", "setting": "[1]; rat, from liver microsomes", "result": "19.1 mL/min and 19.1 ± 0.1 mL/min"}, {"measurement": "extrapolated CLint, in vivo", "setting": "[1]; rat, from liver microsomes", "result": "443 ± 30.9", "unit": "mL/min"}, {"measurement": "half-life", "setting": "[2]; beagle, dog liver microsomes, Cprotein 0.33 mg ml^−1", "result": "< 5", "unit": "min"}, {"measurement": "CLint, in vitro", "setting": "[2]; dog liver microsomes", "result": 466, "unit": "ml min g^−1 protein"}, {"measurement": "metabolic stability (in words)", "setting": "[2]; dog liver microsomes", "result": "not metabolically stable"}, {"measurement": "CLint, in vitro", "setting": "[2]; [6]", "result": "466 ± 12.3", "unit": "ml min^−1 g^−1 protein"}, {"measurement": "extrapolated hepatic clearance normalized to body weight", "setting": "[2]; dog, assumed body weight 10 kg (printed order)", "result": 4.58, "unit": "L·h/kg"}, {"measurement": "extrapolated CLhep in vivo", "setting": "[2]; dog, from liver microsomes", "result": "296 mL/min and 296 ± 0.35 mL/min"}, {"measurement": "extrapolated CLint, in vivo", "setting": "[2]; dog, from liver microsomes", "result": "6712 ± 117", "unit": "mL/min"}, {"measurement": "half-life", "setting": "[2]; [6]", "result": "4.5 ± 0.1", "unit": "min"}, {"measurement": "fraction unbound at 9 h", "setting": "[3]; beagle dog plasma, overall over the three concentrations, read-out: plasma protein binding rate (converted)", "result": 0.34}, {"measurement": "fraction unbound at 9 h, 654 ng ml^−1", "setting": "[3]; dog plasma, measured concentration 654 ng ml^−1", "result": 0.345}, {"measurement": "fraction unbound at 9 h", "setting": "[3]; dog plasma, measured concentration 2.62 × 10^3 ng ml^−1, read-out: protein binding (converted)", "result": 0.369}, {"measurement": "fraction unbound at 9 h", "setting": "[3]; dog plasma, measured concentration 5.23 × 10^3 ng ml^−1, read-out: protein binding (converted)", "result": 0.306}, {"measurement": "λ", "setting": "[4]; 1.045 mg kg^−1", "result": "0.78 ± 0.06 1 h^−1"}, {"measurement": "λ", "setting": "[4]; 2.09 mg kg^−1", "result": "0.54 ± 0.06 1 h^−1"}, {"measurement": "λ", "setting": "[4]; 4.18 mg kg^−1", "result": "0.36 ± 0.06 1 h^−1"}, {"measurement": "Vd", "setting": "[4]; 1.045 mg/kg, 1.045 mg kg^−1", "result": "2.54 ± 0.29", "unit": "L/kg"}, {"measurement": "half-life", "setting": "[4]; 1.045 mg/kg, 1.045 mg kg^−1", "result": "55.2 ± 4.8", "unit": "min"}, {"measurement": "Vd", "setting": "[4]; 2.09 mg/kg, 2.09 mg kg^−1", "result": "~4", "unit": "L/kg"}, {"measurement": "half-life", "setting": "[4]; 2.09 mg/kg, 2.09 mg kg^−1", "result": "~60", "unit": "min"}, {"measurement": "Vd", "setting": "[4]; 4.18 mg/kg, 4.18 mg kg^−1", "result": "4.63 ± 0.67", "unit": "L/kg"}, {"measurement": "half-life", "setting": "[4]; 4.18 mg/kg, 4.18 mg kg^−1", "result": "130 ± 30", "unit": "min"}, {"measurement": "AUC0-t", "setting": "[4]; 1.045 mg kg^−1", "result": 30100, "unit": "ng·h/mL"}, {"measurement": "Cmax", "setting": "[4]; 1.045 mg kg^−1", "result": "1480 ± 140", "unit": "ng/mL"}, {"measurement": "clearance", "setting": "[4]; 1.045 mg kg^−1", "result": 32, "unit": "mL/min/kg"}, {"measurement": "AUC0-t", "setting": "[4]; 2.09 mg kg^−1", "result": 62700, "unit": "ng·h/mL"}, {"measurement": "Cmax", "setting": "[4]; 2.09 mg kg^−1", "result": "2850 ± 220", "unit": "ng/mL"}, {"measurement": "clearance", "setting": "[4]; 2.09 mg kg^−1", "result": 30, "unit": "mL/min/kg"}, {"measurement": "AUC0-t", "setting": "[4]; 4.18 mg kg^−1", "result": 130000, "unit": "ng·h/mL"}, {"measurement": "Cmax", "setting": "[4]; 4.18 mg kg^−1", "result": "6230 ± 240", "unit": "ng/mL"}, {"measurement": "clearance", "setting": "[4]; 4.18 mg kg^−1", "result": 25, "unit": "mL/min/kg"}, {"measurement": "Measured concentration (Mean ± SD)", "setting": "[5]; 4◦C for 3 h, nominal 44.92 ng/mL", "result": "48.79 ± 3.275", "unit": "ng/mL"}, {"measurement": "Measured concentration (Mean ± SD)", "setting": "[5]; 4◦C for 3 h, nominal 3743 ng/mL", "result": "3977 ± 294.1", "unit": "ng/mL"}, {"measurement": "Measured concentration (Mean ± SD)", "setting": "[5]; Freeze and Thaw Cycle (3), nominal 44.92 ng/mL", "result": "47.75 ± 3.427", "unit": "ng/mL"}, {"measurement": "Measured concentration (Mean ± SD)", "setting": "[5]; Freeze and Thaw Cycle (3), nominal 3743 ng/mL", "result": "3722 ± 240.3", "unit": "ng/mL"}, {"measurement": "Measured concentration (Mean ± SD)", "setting": "[5]; Room temperature 3 h, nominal 44.92 ng/mL", "result": "47.91 ± 4.952", "unit": "ng/mL"}, {"measurement": "Measured concentration (Mean ± SD)", "setting": "[5]; Room temperature 3 h, nominal 3743 ng/mL", "result": "3599 ± 136.1", "unit": "ng/mL"}, {"measurement": "Measured concentration (Mean ± SD)", "setting": "[5]; –80 ◦C for 30 days, nominal 44.92 ng/mL", "result": "44.67 ± 4.795", "unit": "ng/mL"}, {"measurement": "Measured concentration (Mean ± SD)", "setting": "[5]; –80 ◦C for 30 days, nominal 3743 ng/mL", "result": "3989 ± 229.1", "unit": "ng/mL"}]}
